Values joined by “and” are separate entries in the source; they are usually repeats but may differ in a detail not shown here. Equal values may be shown once. sCy5 = sulfo-Cy5
Tested on: WT BMDC with OT-I T cells
Experiment: T cell proliferation assay (cross-presentation to OT-I T cells), WT BMDC
Type: cell-based, mouse
Details: Fig 4f source data; 40 nM SLP pulse 2 h, MPLA-matured BMDC, 3 d coculture with OT-I; per experiment, two technical replicates
Procedure: A 70 µm filter was placed on a 50 mL tube and pre-wetted with PBS supplemented with 2 mM EDTA and 2% FCS (single-cell suspension buffer, SCSB). Freshly harvested spleens from OT-I transgenic mice were placed on the filter and disrupted with the back end of a syringe. After thorough washing, the suspension was centrifuged (10 min., 300 rcf, rt). Next, the pellet was gently resuspended in 2 mL of ACK lysing buffer (Gibco, A1049201). After 3 min incubation, the suspension was diluted with 10 mL PBS, filtered once more, and centrifuged again (300 rcf, 10 min, rt). The pellet was resuspended and subjected to magnetically-activated depletion of non-target cells using the “Naïve CD8a+ T cell isolation Kit” (Miltenyi, 130-096-543) according to manufacturer’s protocol. The obtained T cells were counted and resuspended at a density of 5-15 x 10^6/mL in 1 mL PBS with 5 µM CFSE (Biolegend) and incubated for 15 min. at 37 °C. After incubation, cells were spun down (10 min, 300 rcf, rt), washed once more with complete RPMI-1640 and were ready for downstream use.
5 x 10^4 WT, MR^−/− BMDC or 1 x 10^5 splenic DC were seeded in 96-well Nunc U-bottom plates (Thermo Scientific, 168136) and pulsed with Glycan SLP at 40 nM for indicated time. In indicated experiments, DC were pretreated with 1 µg/mL MPLA (Avanti, 699800 P) for 2 h before antigen pulse. After antigen pulse was finished, the plate was spun down for 3 min at 600 rcf, washed once with complete RPMI-1640 and 1-1.5E5 freshly isolated, CFSE-stained OT-I T cells were added to the pulsed DCs in 200 µL complete RPMI-1640 and incubated at 37 °C. After 3 d of coculture, the plate was spun down (3 min, 600 rcf, 4 °C) and supernatant was removed and stored at −80 °C. Cells were washed with FACS buffer (PBS with 2 mM EDTA, 2% FCS and 7.4 mM NaN3) and stained with Aqua Live/DEAD (Invitrogen, L34957, 1:500), TruStain FcX (Biolegend, 101319, 1:100), CD8a—APC (clone: 53-7.6, Biolegend, 100711, 1:200), and TCR V beta 5.1/5.2—eFluor450 (clone: MR9-4, eBioscience, 48-5796-82) for 30 min on ice, washed two times and acquired on a BD Fortessa I flow cytometer and analyzed using FlowJo v8. To calculate mean cycle, the CFSE dilution factor was obtained by dividing the MFI of the antigen pulsed condition by the DMSO pulsed condition expressed as Log2[69]. Statistical analysis and plotting were performed using GraphPad Prism V10.

Row | Substance | average number of cell divisions per T cell (mean cycles)
1 | Ac-Lys(Man)-Gly-Lys(Man)-TEG-Asp-Glu-Val-Ser-Gly-Leu-Glu-Gln-Leu-Glu-Ser-Ile-Ile-Asn-Phe-Glu-Lys-Leu-Ala-Ala-Ala-Ala-Ala-Lys(sCy5)-NH2 ({Ac-K(Man)-Gly-K(Man)-TEG}-DEVSGLEQLESIINFEKLAAAAAK(sCy5)-NH2) [2 Mono(2), bivalent monomannosylated OVA SLP with sulfo-Cy5] | 1.851 and 1.961 and 2.178 and 1.94 and 2.008 and 2.005
2 | Ac-Lys(Man)-Lys(Man)-Lys(Man)-Lys(Man)-Lys(Man)-Lys(Man)-TEG-Asp-Glu-Val-Ser-Gly-Leu-Glu-Gln-Leu-Glu-Ser-Ile-Ile-Asn-Phe-Glu-Lys-Leu-Ala-Ala-Ala-Ala-Ala-Lys(sCy5)-NH2 ({Ac-K(Man)-K(Man)-K(Man)-K(Man)-K(Man)-K(Man)-TEG}-DEVSGLEQLESIINFEKLAAAAAK(sCy5)-NH2) [6 Mono(3), hexavalent monomannosylated OVA SLP with sulfo-Cy5] | 1.958 and 1.615 and 1.514 and 1.427 and 1.57 and 1.31
3 | Ac-Lys(Man)-TEG-Asp-Glu-Val-Ser-Gly-Leu-Glu-Gln-Leu-Glu-Ser-Ile-Ile-Asn-Phe-Glu-Lys-Leu-Ala-Ala-Ala-Ala-Ala-Lys(sCy5)-NH2 ({Ac-K(Man)-TEG}-DEVSGLEQLESIINFEKLAAAAAK(sCy5)-NH2) [1 Mono(1), monovalent monomannosylated OVA SLP with sulfo-Cy5] | 2.424 and 2.329 and 2.498 and 2.6657 and 2.752 and 2.248
4 | Ac-Lys(triMan)-Gly-Lys(triMan)-TEG-Asp-Glu-Val-Ser-Gly-Leu-Glu-Gln-Leu-Glu-Ser-Ile-Ile-Asn-Phe-Glu-Lys-Leu-Ala-Ala-Ala-Ala-Ala-Lys(sCy5)-NH2 (DEVSGLEQLESIINFEKLAAAAAK; two Lys(triMan), TEG, sulfo-Cy5, C-amide; printed: Asp-Glu-Val-Ser-Gly-Leu-Glu-Gln-Leu-Glu-Ser-Ile-Ile-Asn-Phe-Glu-Lys-Leu-Ala-Ala-Ala-Ala-Ala-Lys) [2 Tri(5), bivalent trimannosylated OVA SLP with sulfo-Cy5] | 0.8018 and 0.6166 and 1.144 and 1.271 and 1.393 and 1.229
5 | Ac-Lys(triMan)-Lys(triMan)-Lys(triMan)-Lys(triMan)-Lys(triMan)-Lys(triMan)-TEG-Asp-Glu-Val-Ser-Gly-Leu-Glu-Gln-Leu-Glu-Ser-Ile-Ile-Asn-Phe-Glu-Lys-Leu-Ala-Ala-Ala-Ala-Ala-Lys(sCy5)-NH2 (DEVSGLEQLESIINFEKLAAAAAK; six Lys(triMan), TEG, sulfo-Cy5, C-amide; printed: Asp-Glu-Val-Ser-Gly-Leu-Glu-Gln-Leu-Glu-Ser-Ile-Ile-Asn-Phe-Glu-Lys-Leu-Ala-Ala-Ala-Ala-Ala-Lys) [6 Tri(6), hexavalent trimannosylated OVA SLP with sulfo-Cy5] | 0.3003 and 0.3873 and 0.4343 and 0.4095 and 0.438
6 | Ac-Lys(triMan)-TEG-Asp-Glu-Val-Ser-Gly-Leu-Glu-Gln-Leu-Glu-Ser-Ile-Ile-Asn-Phe-Glu-Lys-Leu-Ala-Ala-Ala-Ala-Ala-Lys(sCy5)-NH2 (DEVSGLEQLESIINFEKLAAAAAK; Ac-Lys(triMan)-TEG, sulfo-Cy5, C-amide; printed: Asp-Glu-Val-Ser-Gly-Leu-Glu-Gln-Leu-Glu-Ser-Ile-Ile-Asn-Phe-Glu-Lys-Leu-Ala-Ala-Ala-Ala-Ala-Lys) [1 Tri(4), monovalent trimannosylated OVA SLP with sulfo-Cy5] | 1.87 and 1.461 and 1.875 and 1.671 and 1.661 and 1.884

Source: PMC12830989, “Subcellular glycan-mannose receptor binding kinetics correlate with myeloid cell function” (Nature Communications, 2025)
